In one experiment the test system is VERO cells. The experiment can be described thus: Cytotoxicity in VERO cells (MTT, 72 hours). It counts as cell-based. The following applies: Chlorocebus sabaeus.
The subject of experiment [1] is M. tuberculosis Erdman (ATCC 35801) in monolayers of mouse bone marrow macrophages. Briefly: Killing of M. tuberculosis Erdman in mouse bone marrow macrophages. It counts as cell-based. The following applies: Mycobacterium tuberculosis, Bone marrow macrophage, 168 h.
A further experiment has as its system M. kansasii swank. The experiment can be described thus: Broth dilution MIC vs M. kansasii swank. It counts as cell-based. Particulars: Mycobacterium kansasii; modified 7H10 broth, lowest concentration with no turbidity.
For another experiment, the system named is M. avium (ATCC 25291). The experiment can be described thus: TAACF M. avium assay. It counts as cell-based, Mycobacterium avium. Particulars: Mycobacterium avium, ATCC25291, reference control; read-out: MIC Clarithromycin vs. M. avium (control in Comment column).
The next experiment deals with M. avium 101. The experiment can be described thus: Broth dilution MIC vs M. avium 101. The following applies: Mycobacterium avium, modified 7H10 broth, lowest concentration with no turbidity. It counts as cell-based.

Converted amounts (≈) assume the structure as drawn.

For the compound `NNC(=O)c1ccncc1` [INH, isonicotinic acid hydrazide, reference compound], the IC50 (as a rule, the concentration needed to halve the response being measured) in the experiment on VERO cells is more than 1000 µg/mL. In addition, in experiment [1], the concentration for an effect of 90% (EC90) – broadly, the point of the concentration-response curve where the effect stands at 90% – amounted to 0.21 µg/mL (≈ 1.53 µM) and the EC99 (as a rule, the concentration at which the effect reaches the 99% level) is more than 0.4 µg/mL. In addition, in the experiment with M. kansasii swank, the MIC (commonly the lowest concentration found to suppress growth) stood at 1 µg/mL (≈ 7.29 µM).
With `CC[C@H]1OC(=O)[C@H](C)[C@@H](O[C@H]2C[C@@](C)(OC)[C@@H](O)[C@H](C)O2)[C@H](C)[C@@H](O[C@@H]2O[C@H](C)C[C@H](N(C)C)[C@H]2O)[C@](C)(OC)C[C@@H](C)C(=O)[C@H](C)[C@@H](O)[C@]1(C)O` [Clarithromycin, reference compound], the minimum inhibitory concentration (MIC) in the experiment on M. avium (ATCC 25291) and in the experiment with M. avium 101 was 2 µg/mL (≈ 2.67 µM) throughout.

(Values after patent US6846933B1, “Antimycobacterial compounds and method for making the same” (priority 2000, dated 2005).)
